# Assay results as given in patent publication US11873298B2, “Compounds and uses thereof” (JANSSEN PHARMACEUTICA NV, priority 2017, dated 2024).
# “And” between values parts separate entries of the source, which are not always exact repeats. Equal entries are not always repeated.
# What was measured:
# Type in all cases: cell-based
# SCD1 = target: T1, SCD1 (Homo sapiens, UniProt O00767); assay: Growth inhibition of humanized yeast strain expressing SCD1 as sole desaturase; conditions: humanized yeast strain expressing SCD1
# T1 construct: host or cells: S. cerevisiae ole1Δ strain (W303 pdr1Δ pdr3Δ background), plasmid pRS316 with TDH3 promoter and CYC1 terminator
# T1 sequence (O00767 1-359): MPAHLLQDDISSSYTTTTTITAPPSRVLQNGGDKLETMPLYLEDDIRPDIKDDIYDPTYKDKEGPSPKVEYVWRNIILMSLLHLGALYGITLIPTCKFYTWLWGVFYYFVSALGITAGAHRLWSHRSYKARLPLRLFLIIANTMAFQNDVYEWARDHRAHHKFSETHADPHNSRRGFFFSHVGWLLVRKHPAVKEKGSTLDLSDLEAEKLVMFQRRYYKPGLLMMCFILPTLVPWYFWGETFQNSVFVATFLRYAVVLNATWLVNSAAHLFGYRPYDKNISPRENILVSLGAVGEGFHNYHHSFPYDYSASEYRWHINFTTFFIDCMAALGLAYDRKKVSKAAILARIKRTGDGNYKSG
# Outline: (§1)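 Plasmid-complemented ole1Δ yeast, drug-pump deleted (pdr1Δ pdr3Δ), depend solely on the introduced Ole1, SCD1 or SCD5 desaturase. Compounds are added from DMSO to cells in uracil-free galactose medium, 2× density 0.02, and OD600 is read after 24 h or 40 h respectively.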
# SCD5 = target: T2, SCD5 (Homo sapiens, UniProt Q86SK9); assay: Growth inhibition of humanized yeast strain expressing SCD5 as sole desaturase; conditions: humanized yeast strain expressing SCD5
# T2 construct: host or cells: S. cerevisiae ole1Δ strain (W303 pdr1Δ pdr3Δ background), plasmid pRS316 with TDH3 promoter and CYC1 terminator
# T2 sequence (Q86SK9 1-330): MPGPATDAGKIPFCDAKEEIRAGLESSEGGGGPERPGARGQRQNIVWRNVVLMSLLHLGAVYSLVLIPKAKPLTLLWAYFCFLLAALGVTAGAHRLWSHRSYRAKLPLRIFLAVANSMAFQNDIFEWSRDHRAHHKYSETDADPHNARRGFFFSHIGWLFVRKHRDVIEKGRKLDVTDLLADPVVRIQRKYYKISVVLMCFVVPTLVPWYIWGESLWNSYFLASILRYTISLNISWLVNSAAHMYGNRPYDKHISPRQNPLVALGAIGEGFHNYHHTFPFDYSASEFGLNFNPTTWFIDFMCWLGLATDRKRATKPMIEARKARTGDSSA
# Outline: as §1
# Ole1 = target: T3, Ole1 (Saccharomyces cerevisiae, UniProt P21147); assay: Growth inhibition of yeast strain expressing Ole1 as sole desaturase; conditions: yeast strain expressing Ole1 as sole desaturase
# T3 construct: expressed in transfected cells; host or cells: S. cerevisiae ole1Δ strain (W303 pdr1Δ pdr3Δ background), plasmid pRS316 with TDH3 promoter and CYC1 terminator
# T3 sequence (P21147 1-510): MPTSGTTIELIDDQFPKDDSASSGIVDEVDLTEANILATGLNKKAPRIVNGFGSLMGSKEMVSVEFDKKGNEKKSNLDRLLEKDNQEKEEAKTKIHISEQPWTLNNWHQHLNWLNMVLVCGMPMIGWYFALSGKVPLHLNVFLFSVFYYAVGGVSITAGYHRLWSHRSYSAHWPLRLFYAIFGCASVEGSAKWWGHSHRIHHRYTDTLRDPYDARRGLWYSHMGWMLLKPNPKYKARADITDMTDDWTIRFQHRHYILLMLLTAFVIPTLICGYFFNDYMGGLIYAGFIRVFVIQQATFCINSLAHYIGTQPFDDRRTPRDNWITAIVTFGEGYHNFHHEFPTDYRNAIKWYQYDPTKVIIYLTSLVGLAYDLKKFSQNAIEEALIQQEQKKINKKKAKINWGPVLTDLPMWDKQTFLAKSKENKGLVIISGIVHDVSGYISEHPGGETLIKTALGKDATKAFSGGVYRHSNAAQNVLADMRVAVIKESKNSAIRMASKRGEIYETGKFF
# Experimental: Strain oleΔ (yeast ole1 deletion mutant) was constructed by deleting OLE1 with NAT-MX6 in BY4741, amplifying the deletion cassette from the genomic DNA of the resulting strain with primers flanking the ORF by 1000 bp upstream and downstream, transforming the resulting deletion cassette into W303 pdr1Δ pdr3Δ, and plating transformants on YPD media containing G418 (200 μg/mL) and nourseothricin ([…]) with 0.01% TWEEN®-20 and 0.5 mM oleic and palmitoleic acids.
# The coding sequence of yeast OLE1 was also cloned into this plasmid). These clones were then transformed into the ole1Δ strain and plated on CSM-Ura media (CSM lacking uracil) with 2% glucose (w/v) and independent colonies were isolated and amplified.
# All compound profiling experiments were performed using the same basic protocol. Different genetic backgrounds (e.g., gene deletions) or conditions (e.g., addition of oleic and palmitoleic acid) were replaced as indicated below.
# Yeast were cultured using standard techniques in complete synthetic media (CSM) and yeast nitrogen base supplemented with 2% (w/v) carbon source (glucose, raffinose, or galactose) to regulate the expression of the toxic disease protein. An initial starter culture was inoculated in 3 mL CSM-Glucose media and incubated overnight in a 30° C. shaker incubator (225 rpm). Saturated morning cultures were then diluted 1:20 in fresh CSM-Raffinose media and grown for 6 h to an OD600 (optical density) of ˜0.4-0.8 at 30° C. with shaking.
# Compound administration was performed in two separate steps. First, 15 μL of CSM-Galactose (induces expression of toxic protein) was dispensed into clear 384 well assay plates using a MULTIDROP™ Combi reagent dispenser. […] The cultures described above were then diluted to a 2× concentration (0.03 and 0.08 for alpha-synuclein and ApoE, final ODsoo of 0.015 and 0.04) in CSM-Galactose. For wild-type and Ole1/SCD1/SCD5 plasmid-containing strains, the 2× cell density was 0.02. […] For 96-well assays (FIGS. 1A and 1B), compound dilutions in DMSO were generated in 96 well plates and 1 μL was manually pipetted into 96 well clear bottom assay plates.
# For experiments using a plasmid-borne copy of Ole1, SCD1, or SCD5 (FIGS. 3B, 6, and 7), media lacking uracil (SX-Ura, where X is glucose, raffinose, or galactose), was used for all steps of the compound profiling protocol to ensure its maintenance throughout the assay.
# After yeast delivery, assay plates were incubated under humidified conditions at 30° C. for 24 to 40 h. ApoE4 rescue experiments were stopped at 24 h, aSyn experiments at 40 h, Ole1 at 24 h, and SCD1/SCD5 at 40 h. The growth of yeast was monitored by reading the ODsoo of each well using a microplate reader (Perkin Elmer EnVision™).
SMILES,IC50 (SCD1),SCD1 % Max Inhibition (SCD1),IC50 (SCD5),SCD5 % Max Inhibition (SCD5),IC50 (Ole1),OLE1 % Max Inhibition (Ole1)
Cc1ccc(N2CC(C(=O)N3CCC(c4nc(-c5ccc6c(C)nn(C)c6c5)no4)CC3)CC2=O)nc1 (centres unmarked) [Compound 184],> 45 µM,86.33% and 50.65%,> 45 µM,2.41% and 11.92%,> 45 µM,3.07% and 0.87%
Cc1nn(C)c2cc(-c3noc(C4CCN(C(=O)c5cccc(F)c5)CC4)n3)ccc12 [Compound 284],,4.81%,> 45 µM,6.80%,> 45 µM,12.40%
Cc1nn(C)c2cc(-c3nsc(C4CCN(C(=O)CNC(=O)c5ccccn5)CC4)n3)ccc12 [Compound 232],> 45 µM,81.04%,41.1 µM,51.17%,> 45 µM,4.20%
Cc1ccc(N2C[C@H](C(=O)N3CCC(c4nc(-c5ccc6c(C)nn(C)c6c5)no4)CC3)CC2=O)nc1 [Compound 303],≥ 45 µM,94.3% and 65%,> 45 µM,15.6% and 20.68%,> 45 µM,14.2% and 8.50%
CCOc1ccc(-c2noc(N3CCC(C(=O)N4CCO[C@H](c5ccccc5)C4)CC3)n2)cc1OC [Compound 218],> 45 µM,48.31%,> 45 µM,25.15%,> 45 µM,4.63%
COc1ccc(-c2nccc(C3CCN(C(=O)CNC(=O)c4ccccc4)CC3)n2)cc1OC [Compound 221],> 45 µM,100.56%,> 45 µM,93.18%,> 45 µM,113.54%
CCN1C(=O)COc2ccc(-c3nc(C4(c5ccc(OC)cc5)CC4)no3)cc21 [Compound 158],> 45 µM,78.34%,> 45 µM,91.96%,> 45 µM,89.93%
COc1ccc(-c2noc(C3CCN(C(=O)CN)CC3)n2)cc1OC [Compound 75],> 45 µM,,30 µM,,> 45 µM,
CC(C)c1ccc(C(=O)N2CCC(c3nc(N4CC5(CCCO5)C4)no3)CC2)cc1 [Compound 336],,56.9%,> 45 µM,74.1%,> 45 µM,86.7%
Cc1nn(C2CC2)c2cc(-c3noc(C4CCN(C(=O)CNC(=O)c5ccccc5)CC4)n3)ccc12 [Compound 286],,13.04% and 14.44%,> 45 µM,8.76% and 9.55%,> 45 µM,5.18% and 4.35%
CC(C)n1cc2ccc(-c3noc(C4CCN(C(=O)C5CC(=O)N(c6ccccc6)C5)CC4)n3)cc2n1 (centres unmarked) [Compound 180],> 45 µM,102.85%,> 45 µM,82.28%,> 45 µM,107.78%
CCOc1ccc(-c2noc(C3CCN(C(=O)CN4Cc5ccc(F)cc5C4=O)CC3)n2)cc1OC [Compound 177],> 45 µM,97.88%,> 45 µM,86.13%,> 45 µM,40.70%
Cc1nn(C)c2cc(-c3noc(N4CCC(C(=O)N5CCO[C@@H](c6ccccc6)C5)CC4)n3)ccc12 [Compound 210],> 45 µM,30.48%,> 45 µM,3.39%,> 45 µM,2.27%
CCOc1ccc(-c2noc(C3CCN(C(=O)CN4Cc5c(F)cccc5C4=O)CC3)n2)cc1OC [Compound 175],> 45 µM,77.47%,> 45 µM,77.96%,> 45 µM,3.00%
Cc1nn(C)c2cc(-c3nc(C4CCN(C(=O)OC(C)(C)C)CC4)no3)ccc12 [Compound 319],≥ 45 µM,97.10% and 89.16% and 81.7% and 75.42%,> 45 µM,,> 45 µM,74.25% and 63.83% and 86.3% and 84.75%
C[C@H]1CN(c2noc(C3CCN(C(=O)C4CC(=O)N(c5cccc(Cl)c5)C4)CC3)n2)C[C@H](C)O1 (some centres unmarked) [Compound 324],> 45 µM,74.9%,> 45 µM,68.7%,> 45 µM,90.5%
